For orientation: EC50 means the concentration giving half of the maximal effect. Read a high EC50 as lower potency in that assay.

This is an account of results in patent publication US8093060B2, “Multisite phosphorylated peptide (protein) recognizing compound and detection method, imaging method, alzheimer's disease diagnosing method and reagent kit using the same” (Canon Kabushiki Kaisha, priority 2008, dated 2012).

“Also recorded” adds a separate entry of the source.

One assay relates to amyloid beta protein. Briefly: Fluorescence staining of AD-affected human brain hippocampal tissue sections, costaining with anti-Aβ antibody. As to conditions: 10 μM probe. The procedure:
To investigate whether an excessively phosphorylated tau protein in brain tissues can be detected, a fluorescence staining experiment of hippocampal tissue sections from a human brain affected by Alzheimer (AD) and a normal brain was performed using BODIPY-Zn(Dpa). Specifically, hippocampal tissue sections from the AD-affected human brain or the normal brain were deparaffinized (xylene immersion for 5 min was repeated three times, then each section was immersed in 100%, 90%, 80% and 70% aqueous ethanol solution in stages [for 2 min each], and finally washed twice with water for 5 min), lipofuscin was removed (washed twice with PBS for 2 min, immersed in 0.25% by weight permanganate potassium/PBS for 30 min, washed twice with PBS for 2 min, immersed in 1% by weight oxalic acid and 1% by weight potassium pyrosulfate/PBS for 6 min and finally washed twice with PBS for 2 min), trypsin treatment was performed (washed twice with PBS-Tween at room temperature for 2 min and 0.05% Trypsin/PBS at 37° C. for 15 min), and finally washed twice with PBS-Tween at room temperature for 5 min, and costaining was performed using an antibody and BODIPY-Zn(Dpa). First, blocking was performed with 10% goat serum (37° C., 30 min) to remove 10% goat serum, then a primary antibody was added, and a reaction was performed at 4° C. for 17 to 19 h. […]

For another assay, the target named is T1, amyloid β aggregate (Homo sapiens, UniProt P05067).
T1 construct: (Aβ1-42) indicates amyloid β aggregate
T1 sequence (P05067 672-713 limits assumed): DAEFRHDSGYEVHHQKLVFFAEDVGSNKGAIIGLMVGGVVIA
Briefly: Fluorescence titration of BODIPY-Zn(Dpa) against amyloid β aggregate (EC50). It is filed as binding. Particulars: aggregate 1 μg/mL, 37° C., 30 min. The procedure: (§1) BODIPY-Zn(Dpa) was titrated against a phosphorylated tau aggregate, a tau aggregate, and an amyloid β aggregate to obtain EC50 (a probe concentration at which a half value of the maximum change (ΔFmax) in fluorescence intensity is observed). BODIPY-Zn(Dpa) was titrated against an aggregate at a predetermined concentration (1 μg/mL), and changes in fluorescence intensity at each concentration (ΔF) were plotted. Using a solvent obtained by adding 10% DMSO and 100 μM Zn(NO3)2 to HBS (10 mM HEPES (pH 7.4), 150 mM NaCl), the solution was incubated at 37° C. for 30 min, and fluorescence was measured (excitation wavelength, 490 nm; fluorescence wavelength, 545 nm).

The target in another assay is T2, Tau0P (Homo sapiens, UniProt P10636).
T2 construct: made in house; host or cells: chemical solid-phase synthesis
As to the kind of experiment: Fluorescence titration of BODIPY-Zn(Dpa) with Tau0P. It is filed as binding. The procedure:
(§2) The phosphorylated peptide-recognizing ability of BODIPY-Zn(Dpa) compound 9 (hereinafter referred to as BODIPY-Zn(Dpa)) was evaluated by measuring fluorescence spectra. Measurement was performed under the following conditions: [BODIPY-Zn(Dpa)]=5 μM; pH 7.2; 50 mM HEPES buffer; and 25° C. The excitation wavelength was λex=530 nm. […] When Tau2P was excessively added, this change reached saturation. The […] calculated from the fluorescence changes was 2.75×10^5 M^−1.

Assay [1] concerns the target T3, tau aggregate (Homo sapiens, UniProt P10636).
T3 construct: made in house; host or cells: Escherichia coli
Briefly: Fluorescence titration of tau aggregate against 100 nM BODIPY-Zn(Dpa). Format: binding. As to conditions: tau 0 to 320 nM against 100 nM BODIPY-Zn(Dpa), 37° C., 60 min. The procedure:
The ranges of concentrations at which a phosphorylated tau aggregate, a tau aggregate, and an amyloid β aggregate interact with BODIPY-Zn(Dpa) were examined by titration. Titration was performed in the range of tau concentrations of 0 to 320 nM (0 to 14 μg/mL) against 100 nM of BODIPY-Zn(Dpa). Using a solvent obtained by adding 10% DMSO and 10 μM Zn(NO3)2 to HBS (10 mM HEPES (pH 7.4), 150 mM NaCl), the solution was incubated at 37° C. for 60 min, and fluorescence was measured (excitation wavelength, 490 nm; fluorescence wavelength, 545 nm).

The target of a further assay is T4, Tau2P (Homo sapiens, UniProt P10636).
T4 construct: made in house; host or cells: chemical solid-phase synthesis
As to the kind of experiment: Fluorescence titration of BODIPY-Zn(Dpa) with Tau2P. It is filed as binding. Particulars: Tau 2P (i, i+4). The procedure:
as §2

The target of assay [2] is T5, phosphorylated tau aggregate (p-Tau) (Homo sapiens, UniProt P10636).
T5 construct: made in house; host or cells: Escherichia coli
T5 sequence (P10636 1-441 isoform P10636-8): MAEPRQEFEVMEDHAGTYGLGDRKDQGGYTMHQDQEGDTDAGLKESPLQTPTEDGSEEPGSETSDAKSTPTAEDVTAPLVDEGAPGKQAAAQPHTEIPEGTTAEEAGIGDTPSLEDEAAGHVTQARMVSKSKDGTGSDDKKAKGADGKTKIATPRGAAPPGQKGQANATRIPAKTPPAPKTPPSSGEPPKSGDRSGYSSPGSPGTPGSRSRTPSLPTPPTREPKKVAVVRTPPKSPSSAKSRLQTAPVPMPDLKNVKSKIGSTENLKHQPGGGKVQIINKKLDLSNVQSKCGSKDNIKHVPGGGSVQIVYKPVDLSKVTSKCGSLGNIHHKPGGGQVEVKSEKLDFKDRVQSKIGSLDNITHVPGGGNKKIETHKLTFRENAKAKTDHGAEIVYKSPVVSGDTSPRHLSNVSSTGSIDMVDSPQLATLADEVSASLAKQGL
As to the kind of experiment: Fluorescence staining of phosphorylated tau aggregate prepared in vitro. Format: binding. As to the method: (§3) Tau proteins (8 μM) expressed by Escherichia coli and heparin (1.6 μM) were incubated at 37° C. for 20 days to prepare a tau aggregate. A phosphorylated tau aggregate was similarly prepared using tau proteins phosphorylated with GSK-3β in vitro. The results of Pro-Q diamond staining after performing SDS-PAGE confirmed that the in-vitro phosphorylation was performed with a phosphorylation degree of 6 mol P/mol Tau.
(§4) 10 μM BODIPY-Zn(Dpa) or 10 μM thioflavine T (may be referred to as ThT) were added to the prepared tau aggregate or phosphorylated tau aggregate. After the addition, the mixture was washed twice with 0.5 mM Zn(NO3)2, and a suspension (0.5 μL) of the stained phosphorylated tau aggregate was air-dried on a cover glass and observed under a confocal laser scanning microscope (OLYMPUS FV-1000, Obj. lens 100×).

Assay [3] addresses T3, tau aggregate. Briefly: Fluorescence titration of BODIPY-Zn(Dpa) against tau aggregate (EC50). As to conditions: aggregate 1 μg/mL, 37° C., 30 min. Format: binding. As to the method:
as §1

Assay [4] deals with T6, nonphosphorylated Tau aggregate (n-Tau) (Homo sapiens, UniProt P10636).
T6 construct: made in house; host or cells: Escherichia coli
T6 sequence (P10636 1-441 isoform P10636-8): as above
As to the kind of experiment: Fluorescence staining of nonphosphorylated tau aggregate prepared in vitro. It is filed as binding. Particulars: 10 μM dye. The procedure:
as §3, §4

The next assay has as its target T7, Tau1P (Homo sapiens, UniProt P10636).
T7 construct: made in house; host or cells: chemical solid-phase synthesis
As to the kind of experiment: Fluorescence titration of BODIPY-Zn(Dpa) with Tau1P. It is filed as binding. As to the method:
as §2

The target in a further assay is T8, Tau204-2162P (Homo sapiens, UniProt P10636).
T8 construct: made in house; host or cells: chemical solid-phase synthesis
Briefly: Fluorescence titration of BODIPY-Zn(Dpa) with Tau204-2162P (i, i+6). It is filed as binding. As to the method: as §2
Fluorescence changes when peptide Tau204-2163P or Tau204-2162P used in Example 1 was added dropwise were measured to calculate the affinity (association constant).

T3 sequence (P10636 1-441 isoform P10636-8): as above

Take `CC1=C(c2ccc(CN(C)Cc3ccccn3)nc2)C(C)=[N+]2C1=C(c1cc(OCCOCCOCCO)cc(OCCOCCOCCO)c1)c1c(C)c(-c3ccc(CN(C)Cc4ccccn4)nc3)c(C)n1[B-]2(F)F.O=[N+]([O-])[O-].O=[N+]([O-])[O-].O=[N+]([O-])[O-].O=[N+]([O-])[O-].[Zn+2].[Zn+2]` [BODIPY-Zn(Dpa)]: the “coexistence of fluorescence with Aβ42 (anti-Aβ antibody) staining” value in the assay with amyloid beta protein was “did not coexist”. The EC50 at amyloid β aggregate stood at 650 nM; on tau aggregate [3] it was 80 nM. Further, the “I/I0 - 1 at saturation” value is reported as “No change” at Tau0P (Tau 0P); 0.55 at Tau2P (BODIPY-Zn(Dpa) 5 μM, pH 7.2, 25° C.); “No change” on Tau1P (Tau 1P); “No change” on Tau204-2162P (Tau204-216 2P (i, i+6)). Moreover, the “fluorescence intensity change on addition of peptide” value on Tau0P (Tau0P, unphosphorylated) was “no major change was observed”; on Tau1P (Tau1P, monophosphorylated) it was “no major change was observed; also recorded: does not change”. Further, at tau aggregate [1], the “concentration range of interaction” value is listed as “in the range of nM”. Moreover, the Association constant at Tau2P (calculated from fluorescence changes) is 275000 M⁻¹. Further, the staining of aggregate result is “did not stain the aggregate” in assay [2] (p-Tau in the presence of pyrophosphoric acid (PPi)); “could bind to and stain the p-Tau aggregate” in [2] (p-Tau, 10 μM dye); “is not observed” in assay [4]. Moreover, on Tau204-2162P (Tau204-2162P (i, i+6)), the “detection of / interaction with peptide by fluorescence change” value was “could not be detected; also recorded: did not interact”.
